Measured values: patent US20200024285A1, “NOVEL CHROMONE OXIME DERIVATIVE AND ITS USE AS ALLOSTERIC MODULATOR OF METABOTROPIC GLUTAMATE RECEPTORS” (Prexton Therapeutics SA, priority 2014, published 2020)
Where two headings read alike, the source gives them in different places. Each block holds one compound with its values, some of them ahead of it.

Experiments:
solubility in water = type: physicochemical; details: as hydrochloride salt
[1] = in vivo pharmacokinetics in male Sprague-Dawley rats, plasma and brain; details: rat; for Kp at 1.5 h: brain, T = 1.5 h, read-out: Brain/Plasma ratio (T = 1.5 h); for Kp at 1.5 h / AUC(0-inf): po
Protocol: PXT002331 and PXT001858 were administered per os (p.o.) at 10 mg/kg to male Sprague-Dawley rats. Volume of administration was 10 ml/kg. In parallel, PXT002331 was also administered intravenously (i.v.) at 1 mg/kg, with a volume of administration of 2 ml/kg. Blood samples (200 μl) were collected at time ranging from 15 minutes to 24 hours for the p.o. administration and from 5 minutes to 24 hours for the i.v. administration in ice-cold tubes containing 0.2% K2EDTA. Tubes were centrifuged at 10,000 rpm for 5 minutes at 4° C. The plasma (supernatant) was separated in another tube and stored at −80° C. until analysis. Two groups of 3 animals were used for each route of administration: in one group, blood samples were collected to determine the kinetics of plasma exposure over a 24-hour period, and in the second group, blood and brain were collected at one terminal time point (0.5, 1.0, 1.5, 2.0, 4.0 hours) to determine the kinetics of brain exposure and brain/plasma ratio.
The respective parent compound (free base) was analysed in plasma samples and in brain homogenate using a LC-MS/MS method. Concentrations are expressed in ng/ml of plasma or in ng/g of brain tissue.
(§1) Despite their similar oral absorption, PXT002331 has a higher brain/plasma ratio (6.5 versus 2.0 at T=1.5 h; see FIG. 4) leading to a 3-fold improvement in the brain AUC when compared to PXT001858. A posteriori, one potential hypothesis might rely on the difference of phase II conjugation in the intestine and liver during oral absorption. […] Nonetheless, this difference observed in vitro cannot by itself explain the unexpected advantageous PK results obtained with PXT002331. The results obtained in these experiments are furthermore summarized in Tables 1 to 3 below and in FIGS. 1 to 4.

human mGluR4 = human mGluR4 (Homo sapiens, UniProt Q14833); test: calcium assay for agonistic and/or positive allosteric modulator activity on human mGluR4; type: cell-based
Protocol: The compound of formula (I) according to the invention (i.e., PXT002331) was tested for its agonistic and/or positive allosteric modulator activity on human mGluR4 using the calcium assay described in Example 171 of WO 2011/051478.

plasma protein binding = type: in vitro ADME; details: read-out: plasma protein binding, free fraction
[2] = test system: MPTP macaque model of Parkinson's disease; test: MPTP macaque model of Parkinson's disease; type: in vivo, Macaca fascicularis
Protocol: FIGS. 5A-F: Evaluation of the anti-parkinsonian efficacy of PXT002331 in the 1-methyl-4-phenyl-1,2,3,6-tetrahydropyridine (MPTP) macaque model of Parkinson's disease (see Example 3). (A) PXT002331 as a stand-alone treatment; oral administration twice a day during 4 days, assessment of parkinsonian scores at day 4; data are mean+s.e.m. over 2 hours observation (n=7 per group; 1 of the 8 monkeys initially used was excluded); “Veh”=vehicle; “LD opt”=L-dopa optimal dose”; *=P<0.05 vs Veh; ***=P<0.001 vs Veh; statistical analysis: Friedman followed by Dunn's. (B) Combined treatment using PXT002331 (25 mg/kg)+low dose of L-dopa (4-9 mg/kg)−parkinsonism time course; oral administration twice a day during 4 days, assessment at day #4; L-dopa optimal dose (“LDopt”): >20 mg/kg; L-dopa suboptimal dose (“LDso”): 4-9 mg/kg; combined administration of L-dopa (suboptimal dose) and PXT002331: twice a day/4 days. […] (D) Combined treatment using PXT002331+low dose of L-dopa−dose-response evaluation for different doses of PXT002331; assessment of parkinsonian scores at day 4; “Veh”=vehicle; “low LD”=low dose of L-dopa; “LD opt”=optimal dose of L-dopa; *=P<0.05 vs low LD; statistical analysis: non-parametric one-way repeated, measures ANOVA (Friedman's test), followed by Dunn's multiple comparison; N=7. (E) Computerized locomotor activity in early-stage PD monkey model for PXT002331 in combination with L-dopa (low dose or optimal dose) upon oral administration; *=P<0.05 vs vehicle; **=P<0.01 vs vehicle; ***=P<0.001 vs vehicle; statistical analysis: Friedman followed by Dunnett's; N=5 (6 monkeys/1 excluded). (F) Combined treatment using PXT002331+optimal dose of L-dopa−disability score and dyskinesia score. The anti-parkinsonian efficacy of the compound of formula (I) according to the present invention (i.e., PXT002331) was evaluated in the 1-methyl-4-phenyl-1,2,3,6-tetrahydropyridine (MPTP) macaque model of Parkinson's disease (using macaques of the species Macaca fascicularis), which reproduces most of the clinical and pathological hallmarks of Parkinson's disease and is considered a “gold standard” (see Porras G et al., Cold Spring Harb Perspect Med., 2(3):a009308, 2012 and references cited therein for a general description of the MPTP model). […] In this experiment, PXT002331 was orally administered twice a day during a period of 4 days, and the parkinsonian score was assessed at day 4 over 2 hours of observation (data are mean values+standard error of the mean (s.e.m.); n=7 monkeys per group). The anti-parkinsonian efficacy of PXT002331 (25 mg/kg) was further evaluated in combination with low (suboptimal) doses of L-dopa (levodopa; 4-9 mg/kg) (see FIGS. 5B and 5C). Doses were orally administered twice a day during 4 days, and assessment of parkinsonian scores took place at day 4 (between 1 and 2 h after L-dopa administration, i.e., between 2 and 3 h after PXT002331 administration). […] The results of a dose-response evaluation of the combination of PXT002331 (at doses from 2 mg/kg to 100 mg/kg) with L-dopa (low dose) are shown in FIG. 5D (the assessment of parkinsonian scores took place at day 4). […] In this experiment, each monkey was equipped with a detector of movements and signals were collected with 24 light beams and a video track recorder in order to descriminate all types of movements. The locomotor activity was measured during 1 hour.

CaCo-2 = test: intestinal absorption CaCo-2 (A-B, pgp); type: in vitro ADME
Protocol: (§2) The in vitro ADME profile of PXT002331 was also very similar with reference to phase I metabolic stability: CL (h/r): 55/101 μl/min/mg protein and intestinal absorption: CaCo-2 (A-B, pgp): 4.11.0.10-6 cm/s, no efflux.

[3] = phase I metabolic stability, CL (r); type: in vitro ADME; details: rat
Protocol: as §2

[4] = test system: UGT (UDP-Glucuronosyl transferase); test: in vitro glucuronidation in rat liver microsomes; type: in vitro ADME; details: in vitro in the presence of UGT
Protocol: as §1

[5] = phase I metabolic stability, CL (h); type: in vitro ADME; details: human
Protocol: as §2

[6] = male, Sprague-Dawley, 10 mg/kg p.o.
[7] = male, Sprague-Dawley, plasma, 10 mg/kg p.o.

Chain of human mGluR4 (Q14833 33-912): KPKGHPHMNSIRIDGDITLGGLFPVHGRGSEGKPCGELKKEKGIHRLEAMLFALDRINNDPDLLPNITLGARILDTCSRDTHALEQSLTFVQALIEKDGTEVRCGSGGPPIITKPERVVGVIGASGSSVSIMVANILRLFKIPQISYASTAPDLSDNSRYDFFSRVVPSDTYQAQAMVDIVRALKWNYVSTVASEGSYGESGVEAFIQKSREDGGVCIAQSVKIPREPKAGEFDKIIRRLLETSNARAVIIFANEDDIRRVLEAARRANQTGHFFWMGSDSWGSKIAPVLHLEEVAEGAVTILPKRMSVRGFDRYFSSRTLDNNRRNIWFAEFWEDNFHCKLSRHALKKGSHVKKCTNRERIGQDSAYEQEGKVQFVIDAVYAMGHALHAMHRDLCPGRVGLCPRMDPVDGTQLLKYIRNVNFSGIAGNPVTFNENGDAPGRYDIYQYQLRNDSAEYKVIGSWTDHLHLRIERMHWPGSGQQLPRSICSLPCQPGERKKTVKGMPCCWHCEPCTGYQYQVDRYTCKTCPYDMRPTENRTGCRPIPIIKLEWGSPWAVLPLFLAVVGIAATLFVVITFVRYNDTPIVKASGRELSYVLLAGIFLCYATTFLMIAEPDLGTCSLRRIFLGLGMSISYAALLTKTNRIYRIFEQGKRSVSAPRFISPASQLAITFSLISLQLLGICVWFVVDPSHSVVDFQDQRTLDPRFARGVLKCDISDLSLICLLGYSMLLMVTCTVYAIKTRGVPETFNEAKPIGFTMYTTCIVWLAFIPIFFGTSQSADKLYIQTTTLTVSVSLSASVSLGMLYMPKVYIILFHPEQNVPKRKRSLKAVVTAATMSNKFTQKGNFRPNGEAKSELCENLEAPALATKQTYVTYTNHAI

solubility (solubility in water): > 10000 µg/mL | Kp at 1.5 h [1, 6]: 2 | AUC(0-inf) [1, 7]: 394 ng·h/mL | Brain AUC inf ([1]; 10 mg/kg p.o.): 838 ng·h/g | Cmax (Brain) ([1]; 10 mg/kg p.o.): 521 ng/G tissue | EC50 (human mGluR4; read-out: pEC50 on human mGluR4 (converted)): 36.3 nM | fraction unbound (plasma protein binding): < 0.01
Compound: O/N=c1\cc(-c2cc3sccc3cn2)oc2ccc(OCCN3CCOCC3)cc12 [PXT001858, reference compound]

induction of dyskinesia in combination with L-dopa (optimal dose) ([2]; 25 to 100 mg/kg): without inducing dyskinesia | solubility (solubility in water): > 10000 µg/mL | CaCo-2 efflux (pgp) (CaCo-2): no efflux | microsomal CLint [3]: 101 µL/min/mg | Kp at 1.5 h [1, 6]: 6.5 | bioavailability ([1]; male, Sprague-Dawley, plasma, oral, 10 mg/kg p.o. vs 1 mg/kg i.v.): 39% | AUC(0-inf) [1, 7]: 432 ng·h/mL | Brain AUC inf ([1]; 10 mg/kg p.o.): 2713 ng·h/g | Cmax (Brain) ([1]; 10 mg/kg p.o.): 818 ng/G tissue | improvement in brain AUC compared to PXT001858 ([1]; 10 mg/kg p.o.): 3 fold | plasma Cmax relative to PXT001858 ([1]; 10 mg/kg p.o.): 0.7 fold | plasma exposure AUC relative to PXT001858 ([1]; 10 mg/kg p.o.): 1.1 fold | level of glucuronidation compared to PXT001858 [4]: much lower level of glucuronidation | EC50 (human mGluR4; read-out: EC50 corresponding to pEC50 (converted)): ~76 nM | microsomal CLint [5]: 55 µL/min/mg | fraction unbound (plasma protein binding): < 0.01
Compound: ON=c1cc(-c2cc3sccc3cn2)oc2ccc(CCCN3CCOCC3)cc12 [PXT002331, 6-(3-morpholin-4-yl-propyl)-2-(thieno[3,2-c]pyridin-6-yl)-4H-chromen-4-one oxime]
parkinsonian score, combined with suboptimal dose of L-dopa vs L-dopa (suboptimal dose) alone ([2]; 25 mg/kg p.o. + L-dopa 4-9 mg/kg, twice a day 4 days, day 4): considerable improvement in parkinsonian score | locomotor activity in combination with low or optimal dose of L-dopa ([2]; 25 mg/kg p.o., early stage PD monkey model, measured during 1 hour): significant improvement in locomotor activity | disability score in combination with L-dopa (optimal dose) ([2]; increasing doses, 25 to 100 mg/kg): improvement in the disability score | anti-parkinsonian activity (parkinsonian score), stand-alone treatment ([2]; p.o. twice a day for 4 days, score at day 4 over 2 h): potent anti-parkinsonian activity
